# Source: patent US10765114B2, “4-amino-6-(pyridyl and 2-substitutedphenyl)-picolinates and 6-amino-2-(pyridyl and 2-substitutedphenyl)-pyrimidine-4-carboxylates and their use as herbicides” (Dow AgroSciences LLC, priority 2013, dated 2020)
# Tests used:
# Assay in all cases: Post-Emergent Test III (Wheat and Barley)
# POLCO (wild buckwheat) = type: in vivo, Polygonum convolvulus; conditions: for Visual Growth Reduction (%) 21 Days After Application, POLCO: postemergence
# Description: (§1) Seeds of the desired test plant species were planted in Sun Gro MetroMix® 306 planting mixture, which typically has a pH of 6.0 to 6.8 and an organic matter content of about 30 percent, in plastic pots with a surface area of 103.2 square centimeters (cm^2). When required to ensure good germination and healthy plants, a fungicide treatment and/or other chemical or physical treatment was applied. The plants were grown for 7-36 days in a greenhouse with an approximate 14 h photoperiod which was maintained at about 18° C. during the day and 17° C. during the night. Nutrients and water were added on a regular basis and supplemental lighting was provided with overhead metal halide 1000-Watt lamps as necessary. The plants were employed for testing when they reached the second or third true leaf stage.
# (§2) A weighed amount, determined by the highest rate to be tested, of each test compound was placed in a 25 mL glass vial and was dissolved in 4 mL of a 97:3 v/v mixture of acetone and DMSO to obtain concentrated stock solutions. […] The concentrated stock solutions obtained were diluted with 20 mL of an aqueous mixture containing acetone, water, isopropyl alcohol, DMSO, Agri-Dex crop oil concentrate, and X-77 surfactant in a 48:39:10:1.5:1.5:0.02 v/v ratio to obtain spray solutions containing the highest application rates. Additional application rates were obtained by serial dilution of 12 mL of the high rate solution into a solution containing 2 mL of 97:3 v/v mixture of acetone and DMSO and 10 mL of an aqueous mixture containing acetone, water, isopropyl alcohol, DMSO, Agri-Dex crop oil concentrate, and X-77 surfactant in a 48:39:10:1.5:1.5:0.02 v/v ratio to obtain ½×, ¼×, ⅛× and 1/16× rates of the high rate. Compound requirements are based upon a 12 mL application volume at a rate of 187 liters per hectare (L/ha). Formulated compounds were applied to the plant material with an overhead Mandel track sprayer equipped with 8002E nozzles calibrated to deliver 187 L/ha over an application area of 0.503 square meters at a spray height of 18 inches (43 cm) above the average plant canopy height. Control plants were sprayed in the same manner with the solvent blank.
# (§3) The treated plants and control plants were placed in a greenhouse as described above and watered by subirrigation to prevent wash-off of the test compounds. After 21 dAYS, the condition of the test plants as compared with that of the untreated plants was determined visually and scored on a scale of 0 to 100 percent where 0 corresponds to no injury and 100 corresponds to complete kill and presented as indicated in Table A.
# (§4) By applying the well-accepted probit analysis as described by J. Berkson in Journal of the American Statistical Society, 48, 565 (1953) and by D. Finney in “Probit Analysis” Cambridge University Press (1952), herbicidal injury of a specific compound at various rates can be used to calculate GR10, GR20, GR50, GR80 and GR90 values, which are defined as growth reduction factors that correspond to the effective dose of herbicide required to provide plant growth reduction (GR) of 10 percent, 20 percent, 50 percent, 80 percent and 90 percent, respectively. Probit analysis was applied to data collected from multiple dose rates of individual compounds utilizing the procedures explained in the following examples. The analysis of those dose rates is captured in the following tables.
# KCHSC (kochia) = type: in vivo, Kochia scoparia
# Procedure, shortened: (§5)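 Post-emergence foliar spray, 187 L/ha, serial ½×–1/16× rates; plants at 2nd–3rd true leaf; greenhouse ~18 °C day/17 °C night, 14 h light; subirrigated after treatment. Visual injury 0–100% at 21 d vs untreated; GR values by probit analysis over multiple rates.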
# [1] = tested on: VERPE (Persian speedwell); type: in vivo, Veronica persica; conditions: for Visual Growth Reduction (%) 21 Days After Application, VERPE: postemergence
# Description: as §1, §2, §3, §4
# PAPRH (common poppy) = type: in vivo, Papaver rhoeas; conditions: for Visual Growth Reduction (%) 21 Days After Application, PAPRH: postemergence
# Description: as §1, §2, §3, §4
# [2] = tested on: LAMPU (purple deadnettle); type: in vivo, Lamium purpureum; conditions: for Visual Growth Reduction (%) 21 Days After Application, LAMPU: postemergence
# Description: as §1, §2, §3, §4
# TRZSS = type: in vivo
# Procedure, shortened: as §5
# HORSS = type: in vivo
# Procedure, shortened: as §5
# SASKR (Russian thistle) = type: in vivo, Salsola tragus; conditions: for Visual Growth Reduction (%) 21 Days After Application, SASKR: postemergence
# Description: as §1, §2, §3, §4
# APESV (windgrass) = type: in vivo, Apera spica-venti
# Description: as §1, §2, §3, §4
# [3] = effective dose for growth reduction of 50 percent, probit analysis
# [4] = effective dose for growth reduction of 80 percent, probit analysis
# [5] = effective dose for growth reduction of 90 percent, probit analysis
# [6] = effective dose for growth reduction of 10 percent, probit analysis
# [7] = effective dose for growth reduction of 20 percent, probit analysis
compound,measurement,setting,value
COC(=O)c1nc(-c2ccc(Cl)c(F)c2C)cc(N)c1Cl [Compound 73],"Visual Growth Reduction (%) 21 Days After Application, POLCO",POLCO (wild buckwheat); 35 g ai/ha,A (95-100)
same,"Visual Growth Reduction (%) 21 Days After Application, POLCO",POLCO (wild buckwheat); 70 g ai/ha,A (95-100)
same,"Visual Growth Reduction (%) 21 Days After Application, POLCO",POLCO (wild buckwheat); 140 g ai/ha,A (95-100)
same,"GR50, POLCO",POLCO (wild buckwheat); [3],7 g ai/ha
same,"GR80, POLCO",POLCO (wild buckwheat); [4],10 g ai/ha
same,"GR90, POLCO",POLCO (wild buckwheat); [5],12 g ai/ha
same,pest or weed control at 35 g/ha,"KCHSC (kochia); Bassia scoparia, post-emergence, 504 h, 35 g ai/ha, postemergence, read-out: Visual Growth Reduction (%) 21 Days After Application, KCHSC",85 to 94%
same,pest or weed control at 70 g/ha,"KCHSC (kochia); Bassia scoparia, post-emergence, 504 h, 70 g ai/ha, postemergence, read-out: Visual Growth Reduction (%) 21 Days After Application, KCHSC",95 to 100%
same,pest or weed control at 140 g/ha,"KCHSC (kochia); Bassia scoparia, post-emergence, 504 h, 140 g ai/ha, postemergence, read-out: Visual Growth Reduction (%) 21 Days After Application, KCHSC",95 to 100%
same,"GR50, KCHSC",KCHSC (kochia); [3],8 g ai/ha
same,"GR80, KCHSC",KCHSC (kochia); [4],21 g ai/ha
same,"GR90, KCHSC",KCHSC (kochia); [5],35 g ai/ha
same,"Visual Growth Reduction (%) 21 Days After Application, VERPE",[1]; 35 g ai/ha,G (0-29)
same,"Visual Growth Reduction (%) 21 Days After Application, VERPE",[1]; 70 g ai/ha,G (0-29)
same,"Visual Growth Reduction (%) 21 Days After Application, VERPE",[1]; 140 g ai/ha,F (30-44)
same,"GR50, VERPE",[1]; [3],>140 g ai/ha
same,"GR80, VERPE",[1]; [4],>140 g ai/ha
same,"GR90, VERPE",[1]; [5],>140 g ai/ha
same,"Visual Growth Reduction (%) 21 Days After Application, PAPRH",PAPRH (common poppy); 35 g ai/ha,D (60-74)
same,"Visual Growth Reduction (%) 21 Days After Application, PAPRH",PAPRH (common poppy); 70 g ai/ha,D (60-74)
same,"Visual Growth Reduction (%) 21 Days After Application, PAPRH",PAPRH (common poppy); 140 g ai/ha,A (95-100)
same,"GR50, PAPRH",PAPRH (common poppy); [3],15 g ai/ha
same,"GR80, PAPRH",PAPRH (common poppy); [4],48 g ai/ha
same,"GR90, PAPRH",PAPRH (common poppy); [5],90 g ai/ha
same,"Visual Growth Reduction (%) 21 Days After Application, LAMPU",[2]; 35 g ai/ha,A (95-100)
same,"Visual Growth Reduction (%) 21 Days After Application, LAMPU",[2]; 70 g ai/ha,A (95-100)
same,"Visual Growth Reduction (%) 21 Days After Application, LAMPU",[2]; 140 g ai/ha,A (95-100)
same,"GR50, LAMPU",[2]; [3],<17.5 g ai/ha
same,"GR80, LAMPU",[2]; [4],<17.5 g ai/ha
same,"GR90, LAMPU",[2]; [5],<17.5 g ai/ha
same,pest or weed control at 35 g/ha,"TRZSS; Triticum aestivum, post-emergence, 504 h, 35 g ai/ha, postemergence, read-out: Visual Growth Reduction (%) 21 Days After Application, TRZSS",60 to 74%
same,pest or weed control at 70 g/ha,"TRZSS; Triticum aestivum, post-emergence, 504 h, 70 g ai/ha, postemergence, read-out: Visual Growth Reduction (%) 21 Days After Application, TRZSS",60 to 74%
same,pest or weed control at 140 g/ha,"TRZSS; Triticum aestivum, post-emergence, 504 h, 140 g ai/ha, postemergence, read-out: Visual Growth Reduction (%) 21 Days After Application, TRZSS",75 to 84%
same,"GR10, TRZSS",TRZSS; [6],3 g ai/ha
same,"GR20, TRZSS",TRZSS; [7],6 g ai/ha
same,pest or weed control at 35 g/ha,"HORSS; Hordeum vulgare, post-emergence, 504 h, 35 g ai/ha, postemergence, read-out: Visual Growth Reduction (%) 21 Days After Application, HORSS",60 to 74%
same,pest or weed control at 70 g/ha,"HORSS; Hordeum vulgare, post-emergence, 504 h, 70 g ai/ha, postemergence, read-out: Visual Growth Reduction (%) 21 Days After Application, HORSS",60 to 74%
same,pest or weed control at 140 g/ha,"HORSS; Hordeum vulgare, post-emergence, 504 h, 140 g ai/ha, postemergence, read-out: Visual Growth Reduction (%) 21 Days After Application, HORSS",75 to 84%
same,"GR10, HORSS",HORSS; [6],2 g ai/ha
same,"GR20, HORSS",HORSS; [7],5 g ai/ha
same,"Visual Growth Reduction (%) 21 Days After Application, SASKR",SASKR (Russian thistle); 35 g ai/ha,C (75-84)
same,"Visual Growth Reduction (%) 21 Days After Application, SASKR",SASKR (Russian thistle); 70 g ai/ha,C (75-84)
same,"Visual Growth Reduction (%) 21 Days After Application, SASKR",SASKR (Russian thistle); 140 g ai/ha,C (75-84)
same,"GR50, SASKR",SASKR (Russian thistle); [3],1 g ai/ha
same,"GR80, SASKR",SASKR (Russian thistle); [4],84 g ai/ha
same,"GR90, SASKR",SASKR (Russian thistle); [5],>140 g ai/ha
same,pest or weed control at 35 g/ha,"APESV (windgrass); Apera spica-venti, post-emergence, 504 h, 35 g ai/ha, postemergence, read-out: Visual Growth Reduction (%) 21 Days After Application, APESV",45 to 59%
same,pest or weed control at 70 g/ha,"APESV (windgrass); Apera spica-venti, post-emergence, 504 h, 70 g ai/ha, postemergence, read-out: Visual Growth Reduction (%) 21 Days After Application, APESV",60 to 74%
same,pest or weed control at 140 g/ha,"APESV (windgrass); Apera spica-venti, post-emergence, 504 h, 140 g ai/ha, postemergence, read-out: Visual Growth Reduction (%) 21 Days After Application, APESV",85 to 94%
same,"GR50, APESV",APESV (windgrass); [3],32 g ai/ha
same,"GR80, APESV",APESV (windgrass); [4],90 g ai/ha
same,"GR90, APESV",APESV (windgrass); [5],>140 g ai/ha
